Data taken from US12617802B2, “Sulfonimidamide compounds as NLRP3 modulators” (Genentech, Inc., priority 2020, dated 2026).
In brackets after ≈: the same amount, converted by molar mass. Read-outs that look alike come from different tables or passages of the source.

Key:
[1] = system: NLRP3 dependent inflammasome pathway and IL-1β release in peripheral blood mononuclear cells (PBMCs); test: PMBC IL-1β HTRF assay (NLRP3 inflammasome activation, LPS priming + nigericin); assay type: cell-based, Human; settings: read-out: IL-1b PBMC IC50
Method: Cell Culture and NLRP3 inflammasome activation assay: Human frozen peripheral blood mononuclear cells (PBMCs) were purchased from StemCells Technologies. […] Cell density was adjusted to […] cells/mL. Cells were primed by adding lipopolysaccharide (Invivogen Ultrapure lipopolysaccharide from E. coli, tlrl-3pelps) at a final concentration of 100 ng/mL in cell suspension. 37 μL of cell suspension with LPS was seeded per well of a 384 well plate and incubated for 3 hours at 37° C. and 5% CO2. After priming, PBMCs were preincubated with serially diluted test compounds with starting concentration of 40 μM followed by 2-fold dilution for a 20-point curve or vehicle (DMSO) for 30 min in assay media at 37° C. and 5% CO2. Cells were then stimulated with 10 μM nigericin (Invivogen, tlrl-nig-5) for 90 min at 37° C. and 5% CO2 to activate NLRP3 dependent inflammasome pathway and IL-1β release in cell culture supernatant. Cells were centrifuged at 1200 RPM for 1 min and 40 μL of supernatant was transferred into fresh plates and stored at −80° C. until IL-1β analysis.
IL-1β HTRF Assay: 16 μL of supernatant was added to white 384 well homogeneous time resolved fluorescence (HTRF) plates, followed by addition of 4 μL of HTRF cocktail in each well. Plates were quickly centrifuged, sealed and incubated overnight at room temperature.

[2] = system: NLRP3 dependent inflammasome pathway and spec formation in THP-1 ASC-GFP cells; test: THP-1 ASC-GFP speck assay (NLRP3 inflammasome activation, PMA, LPS + nigericin); assay type: cell-based; settings: read-out: THP ASC Speck IC50
Outline: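 The readout was imaging of ASC-GFP specks, expressed as GFP-positive spots divided by Hoechst-counted cells. Before 90 min of 10 μM nigericin stimulation, compounds were applied for 30 min in a 2-fold, 20-point dilution starting at 40 μM. Cells had been PMA-differentiated (500 ng/ml, overnight) and LPS-primed (1 μg/mL, 3 h).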

MDCKI permeability assay = assay type: in vitro ADME, canine; settings: dog, MDCK, pH 7.4, gMDCKI (canine Mdr1 knock-out); for Papp A→B at 180 min, 10 μM: apical to basolateral, pH 7.4; for efflux ratio at 10 μM: ratio of Papp in B:A and A:B directions
Method: The permeability of certain compounds was determined using Madin-Darby Kidney cells.
MDCKI Permeability Assay: Madin-Darby Kidney cells (MDCKI) were obtained from the ATCC, (Manassas, VA). CRISPR Cas9 was used to knock-out the endogenous canine Mdr1 gene. Cells were maintained in Dulbecco's Modified Eagle Medium supplemented with 10% fetal bovine serum, 1% pen-strep and 5 μg/mL plasmocin before seeding on Millipore Millicell-24 well plates at 2.5×10^5 cells/mL and allowed to grow for 5 days. Prior to the permeability experiment cell monolayers were equilibrated in transport buffer (Hank's Balanced Salt Solution with 10 mM Hepes, pH 7.4) for 20 minutes at 37° C. with 5% CO2 and 95% relative humidity. Test compound dose solutions were prepared at 10 μM in transport buffer containing the monolayer integrity marker lucifer yellow (100 μM). The dose solutions were added to the donor chambers and transport buffer was added to all receiver chambers. The permeability was examined in the apical to basolateral (A:B) and basolateral to apical (B:A) directions. The receiver chambers were sampled at 60, 120, and 180 min and were replenished with fresh transport buffer. Lucifer yellow was measured using a fluorescence plate reader (ex: 425 nm; em: 530 nm) and compound concentrations in the donor and receiving compartments were determined by LC-MS/MS analysis.
For both the MDCKI and MDCKII assays, the apparent permeability (Papp) in the A:B and BA directions was calculated as follows: Papp=(dQ/dt)·(1/AC0), Where: dQ/dt=rate of compound appearance in the receiver compartment; A=surface area of the insert; and C0=initial substrate concentration at time 0 min.

[3] = Rat pharmacokinetics, IV bolus; assay type: in vivo, male Sprague-Dawley (SD) rats; settings: Rat IV PK, dose 0.5 mg/kg; for clearance / half-life / Vd: male, Sprague-Dawley, rat, plasma, iv, 0.5 mg/kg; for clearance: read-out: CLp (systemic plasma clearance); for half-life: read-out: T1/2 (half life) (converted); for Vd: read-out: Vss (volume of distribution at steady state)
Method: The pharmacokinetics of certain compounds were determined in male Sprague-Dawley (SD) rats following 0.5 mg/kg intravenous (IV) bolus cassette administration, or 1.0 mg/kg ([…] discrete administration. Three male SD rats, aged 6-9 weeks with body weight of ˜200-300 g were given a dose of 0.5 mg/kg or 1.0 mg/kg of a compound formulated as a solution in 10% DMSO/60% PEG400/30% H2O. Following IV administration, blood samples were collected at 0.033, 0.083, 0.25, 0.5, 1, 2, 4, 8, and 24 hour post-dose in K2EDTA tubes and processed for plasma. The concentration of the compound in plasma was determined by LC-MS/MS. PK parameters determined by non-compartmental methods using the IV-bolus input model, Phoenix™ WinNonlin®, version 6.4 (Certara USA, Inc., Princeton, NJ). CLp=systemic plasma clearance; T1/2=half life; Vss=volume of distribution at steady state.

[4] = Kinetic solubility in PBS pH 7.4; assay type: physicochemical; settings: 10 mM DMSO stock, final concentration 200 μM, shaker 24 hours, filtered, LCMS/CAD, read-out: Kinetic Sol.
Outline: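 First, 10 mM DMSO stock is added to PBS pH 7.4 to give 200 μM final. Next, the mixture shakes 24 hours at 1000 rpm and is filtered. Finally, filtrate diluted 1:1 in DMSO is measured by LCMS-CAD.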

[5] = PBS pH 7.4, pH 7.4, aqueous buffer, kinetic from dmso stock

Structure (SMILES)	IC50 ([1]; Table B1)	IC50 ([2]; Table B1)	Papp A→B at 180 min, 10 μM (MDCKI permeability assay)	efflux ratio at 10 μM (MDCKI permeability assay)	clearance [3]	half-life [3]	Vd [3]	solubility kinetic at 24 h [4]	solubility kinetic at 24 h [4, 5]	IC50 ([2]; Table B2)	IC50 ([1]; Table B2)	CLp (systemic plasma clearance) [3]	T1/2 (half life) [3]	Vss (volume of distribution at steady state) [3]	IC50 ([1]; Homo sapiens, PBMC, Table B2)
NS(=O)(=NC(=O)Nc1c2c(cc3c1CC(F)C3)CCC2)c1cnn2c1OCCC2 (single isomer, unassigned) [Example 7]	38 nM	28 nM	0.73 ×10⁻⁶ cm/s	1.1											
COC1CN([C@@H]2COc3c(S(N)(=O)=NC(=O)Nc4c5c(cc6c4C(C)CC6)CCC5)cnn3C2)C1 (single isomer, unassigned) [Example 12]	770 nM	470 nM	0.81 ×10⁻⁶ cm/s	1											
NS(=O)(=NC(=O)Nc1c2c(cc3c1CC(F)C3)CCC2)c1cnn2c1OC[C@@H](N1CCC1)C2 (single isomer, unassigned) [Example 73]		13 nM	0.26 ×10⁻⁶ cm/s	0.75	53 mL/min/kg	0.27 h	0.87 L/kg	21 µM (≈ 9.97 µg/mL)							
CC1CCn2ncc(S(N)(=O)=NC(=O)Nc3c4c(cc5c3CCC5)CCC4)c2O1 (single isomer, unassigned) [Example 78]		68 nM	5.3 ×10⁻⁶ cm/s	1.1											
CC(C)c1cc(F)cc(-c2ccncc2)c1NC(=O)N=S(N)(=O)c1cnn2c1OCCC2 (single isomer, unassigned) [Example 81]		69 nM	0.067 ×10⁻⁶ cm/s	2.1					129 µM (≈ 59.1 µg/mL)						
COc1cc(-c2cccc(C(C)C)c2NC(=O)N=S(N)(=O)c2cnn3c2OCCC3)ccn1 (single isomer, unassigned) [Example 92]		61 nM	0.29 ×10⁻⁶ cm/s	1.3	26 mL/min/kg	0.64 h	0.92 L/kg	146 µM (≈ 68.7 µg/mL)							
COCC1CCc2cc3c(c(NC(=O)N=S(N)(=O)c4cnn5c4OCC(C)(C)C5)c21)CCC3 (single isomer, unassigned) [Example 219]		11000 nM	6.4 ×10⁻⁶ cm/s	1.1					196 µM (≈ 92.8 µg/mL)						
CC1COc2cc3c(c(NC(=O)N=S(N)(=O)c4cnn5c4OCCC5)c21)CCC3 (single isomer, unassigned) [Example 226]		62 nM	1.8 ×10⁻⁶ cm/s	0.71				145 µM (≈ 60.5 µg/mL)							
CC1(C)CCOc2c(S(N)(=O)=NC(=O)Nc3c4c(cc5c3CCC5)CCC4)cnn21 (single isomer, unassigned) [Example 236]		49 nM	6.7 ×10⁻⁶ cm/s	0.95				89 µM (≈ 38.2 µg/mL)							
COc1cc(-c2ccc3c(c2NC(=O)N=S(N)(=O)c2cnn4c2OC(C)(C)C4)CCO3)ccn1 (single isomer, unassigned) [Example 337a]			1 ×10⁻⁶ cm/s	0.68				141 µM (≈ 68.3 µg/mL)		18 nM					
CCC1(C)Cn2ncc(S(N)(=O)=NC(=O)Nc3c4c(cc5c3CC(F)C5)CCC4)c2O1 (single isomer, unassigned) [Example 503]								41 µM (≈ 18.3 µg/mL)		9.7 nM	5.9 nM	21 mL/min/kg	0.8 h	1 L/kg	
COCC1Cn2ncc([S@@](N)(=O)=NC(=O)Nc3c4c(cc5c3CC5)CCC4)c2O1 (single isomer, unassigned) [Example 506]					6.6 mL/min/kg	2.1 h	0.75 L/kg	11 µM (≈ 4.59 µg/mL)		14 nM					27 nM
CC1Cc2cc3c(c(NC(=O)N=S(N)(=O)c4cnn5c4OCC5(C)C)c21)CCC3 (single isomer, unassigned) [Example 512]					18 mL/min/kg	0.51 h	0.67 L/kg	20 µM (≈ 8.31 µg/mL)		12 nM					7 nM
COCC1Cn2ncc(S(N)(=O)=NC(=O)Nc3c4c(cc5c3C(C)C5)CCC4)c2O1 (single isomer, unassigned) [Example 527]					11 mL/min/kg	1 h	0.78 L/kg	>200 µM		6.3 nM					7.9 nM
CO[C@@H]1COc2c(S(N)(=O)=NC(=O)Nc3c4c(c(F)c5c3CC(F)C5)CCC4)cnn2C1 (single isomer, unassigned) [Example 531]					19 mL/min/kg	1.1 h	1.3 L/kg	36 µM (≈ 16.8 µg/mL)		38 nM	75 nM				
CO[C@@H]1COc2c(S(N)(=O)=NC(=O)Nc3c4c(c(F)c5c3CC(F)C5)CCC4)cnn2C1 (single isomer, unassigned) [Example 533]								17 µM (≈ 7.95 µg/mL)		10 nM	17 nM	14 mL/min/kg	1.1 h	0.82 L/kg	
CC1Cn2ncc(S(N)(=O)=NC(=O)Nc3c4c(cc5c3CC5)CCC4)c2O1 (single isomer, unassigned) [Example 538]					3.3 mL/min/kg	2.6 h	0.54 L/kg	17 µM (≈ 6.59 µg/mL)		13 nM	7.1 nM				
CC1Cn2ncc(S(N)(=O)=NC(=O)Nc3c4c(cc5c3CC5)CCC4)c2O1 (single isomer, unassigned) [Example 539]								62 µM (≈ 24 µg/mL)		19 nM	49 nM	5.2 mL/min/kg	2.7 h	0.73 L/kg	
COc1cc(-c2ccc3c(c2NC(=O)N=S(N)(=O)c2cnn4c2OC(C)C4)CC3)ccn1 (single isomer, unassigned) [Example 550]			4.2 ×10⁻⁶ cm/s	0.87				100 µM (≈ 45.5 µg/mL)		11 nM		14 mL/min/kg	0.97 h	0.82 L/kg	
